Patent US20060241174A1, “Vitamin E tocotrienols inhibition of intracellularly obligate pathogen Chlamydia and methods of use” (priority 2005, published 2006)

Assays:
C. trachomatis serovar K = test: Inclusion count by immunofluorescence in C. trachomatis-infected mouse macrophages (J774A.1) treated with delta tocotrienol; type: cell-based, Chlamydia trachomatis
Experimental: FIG. 3 illustrates Chlamydia-infected mouse macrophage cells treated with delta tocotrienol (400× magnification). Mouse macrophages (J774A. 1 cells) were pretreated with a 30 μmol/L concentration of delta tocotrienol in culture for 4 hours and infected with C. trachomatis SVK for 48 hours. Arrows indicate inclusions. Cells were viewed and digitally documented using a Zeiss LSM 510 Meta Confocal System at a magnification of 400×. White arrows point out characteristic inclusions (Scale indicates 50 μm).
FIG. 4 illustrates Chlamydia-infected mouse macrophage cells treated with delta tocotrienol (630× magnification). White arrows point to representative cells. Note numerous very small, unfused inclusions in A (Scale indicates 50 μm).
(§1) Chlamydial Strains: Stocks of C. trachomatis serovar K/VR887 were grown in J774A.1 cells without centrifuge assistance. Infected cells were lysed, this stock aliquoted and frozen down in SPG freeze medium (75.0 g sucrose, 0.52 g potassium phosphate, 1.22 g sodium phosphate dibasic, 0.72 g glutamic acid, diluted in […] ddH2O). These aliquots were stored in liquid N2 or at −80° C., and later thawed for use to infect monolayers.
(§2) Cell Lines Used: Mouse macrophages (J774A.1), human mammary tumor cells (MCF-7), and human epithelial cells (Hep-2), were obtained from the American Type Culture collection. Human mammary tumor cells (TMX2-28) were a kind gift from Dr. Arcaro, and human B-lymphocytes (JY) were a kind gift from Dr. Eric Martz. All cell lines were maintained in Richter's improved MEM insulin (IMEMZO, Irvine Scientific, Santa Ana, Calif.) with 5% fetal bovine serum (FBS, Atlanta Biologicals, Norcross, Ga.). Cells were grown to 80% confluence on 12 mm coverslips in 12 well plates (Becton Dickinson Labware, Franklin Lakes, N.J.). A dilution of 1:125 or 1:200 of the C. trachomatis serovar K stock was made using the standard complete cycloheximide overlay media (Bio-Whittaker, Walkersville, Md.) containing 10% FBS, and 1× L-glutamine (CCOM). This was layered onto the coverslip containing monolayers, and incubated for 24-48 hours at 37° C. with 5% CO2. Coverslips with the cell monolayers were harvested, rinsed with phosphate buffered saline (PBS), fixed with 70% cold methanol, stored and subsequently immunostained.
Delta Tocotrienol Treatment: A stock of delta tocotrienol (98% purity, American River Nutrition, Hadley, Mass.) was diluted to 1 mg/1 ml in absolute ethanol [EtOH]. Confluent monolayers of J774A.1, MCF-7, TMX2-28, JY, or Hep-2 cells were treated with 5, 10, 20, 30, or 40 μmol/L concentrations of delta tocotrienol. Treatment occurred 5 hours prior to infection with C. trachomatis serovar K, at point of infection, or three hours post-infection.
Immunostaining: Briefly, infected cells were immunostained with a 1:2 dilution of guinea pig anti-chlamydia polyclonal antibody (Biomeda, Foster City, Calif.), or a 1:125 dilution of rabbit anti-chlamydia EB whole serum for 1 hour at 37° C. Following PBS rinses X3, the bound antibodies were detected using a 1:100 dilution of FITC-conjugated donkey anti-guinea pig or a 1:125 dilution of TRITC-conjugated goat anti-rabbit secondary antibodies (Jackson ImmunoResearch, West Grove, Pa.). Following incubation for 1 hour at room temperature and 3 rinses with PBS, coverslips were mounted onto slides using Fluoromount-G (Southern Biotechnology Associates Inc., Birmingham, Ala.) or Vectashield® Mounting Medium with DAPI (Vector Laboratories, Inc., Burlingame, Calif.), and were then sealed. Initially, slides were examined at 400× using a Nikon LABPHOT-2. For photography, slides were assessed in the Massachusetts Central Microscopy Facility using a Zeiss LSM 510 Meta Confocal System and 630× magnification. Images were captured, and as relevant, merged using the Confocal Assistant™ version 4.02 Image Processing Software.
Counts on all coverslips with experimental conditions as in FIG. 3 and 4 were done for the average of 10 fields of view. […]

tumors = conditions: background statement, no source given; cited from earlier work
LDL = LDL levels in hyperlipidemic patients before and after delta-tocotrienol supplementation; type: in vivo, human
Experimental: In a clinical study, buffy coats from blood samples drawn both before and after delta-tocotrienol supplementation were immunostained for detection of Chlamydia-infected cells. The samples were tested for LDL levels both before and after delta-tocotrienol supplementation.

C. trachomatis SVK = test: Flow cytometry on Chlamydia-infected human B-lymphocytes (JY) treated with delta tocotrienol; type: cell-based, Chlamydia trachomatis
Experimental: FIG. 5 illustrates flow cytometry on Chlamydia-infected human B-lymphocytes treated with delta tocotrienol. Human B-lymphocyte (JY) cells were treated with a 30 μmol/L concentration of delta tocotrienol in culture for 4 hours, infected with C. trachomatis SVK for 24-72 hours. Immunofluorescent Chlamydia-positive cells were detected by flow cytometry.
as §1
as §2, with “immunostained. […]” for “immunostained.”
Immunostaining: Briefly, infected cells were immunostained with a 1:2 dilution of guinea pig anti-chlamydia polyclonal antibody (Biomeda, Foster City, Calif.), or a 1:125 dilution of rabbit anti-chlamydia EB whole serum for 1 hour at 37° C. Following PBS rinses X3, the bound antibodies were detected using a 1:100 dilution of FITC-conjugated donkey anti-guinea pig or a 1:125 dilution of TRITC-conjugated goat anti-rabbit secondary antibodies (Jackson ImmunoResearch, West Grove, Pa.). […] For photography, slides were assessed in the Massachusetts Central Microscopy Facility using a Zeiss LSM 510 Meta Confocal System and 630× magnification. […]
Samples were analyzed for carriage of Chlamydia-infected cells by FACScan (Becton, Dickinson and Company, Franklin Lakes, N.J.).

[1] = First Infection, J774A.1, 30 μmol/L
[2] = Second Infection, J774A.1, 30 μmol/L
[3] = Third Infection, J774A.1, 30 μmol/L

delta tocotrienol
morphology of chlamydial inclusions (FIG. 4) (C. trachomatis serovar K; 20-40 μmol/L delta tocotrienol, Chlamydia-specific immunofluorescence staining): immature, small, and less round
Inclusions (per field of view), Small (≦10 μm) (C. trachomatis serovar K; [1]): 4.5 per field of view
Inclusions (per field of view), Total (C. trachomatis serovar K; [1]): 5.2 per field of view
Inclusions Total/Cell (C. trachomatis serovar K; [1]): 0.058
Inclusions (per field of view), Large (15-20 μm) (C. trachomatis serovar K; First Infection, J774A.1, 30 μmol/L delta tocotrienol, average of 10 fields of view): 0.7 per field of view
Percent Inhibition (C. trachomatis serovar K; First Infection, treated vs control, J774A.1, 30 μmol/L): 52.3%
large, mature inclusions (FIG. 3) (C. trachomatis serovar K; J774A.1, 30 μmol/L pretreatment, 48 hours infection, 400× magnification): no evidence of large, mature inclusions
size of large inclusions in the tocotrienol-treated cells (C. trachomatis serovar K; J774A.1, control cells 20 μm): 10-15 μm
inclusions thinner than in control cells (Z-axis) (C. trachomatis serovar K; J774A.1, optical sections, treated vs control): 3 fold
inclusions smaller than in control cells (X-Y axes) (C. trachomatis serovar K; J774A.1, treated vs control): 2 to 3 fold
Inclusions (per field of view), Large (15-20 μm) (C. trachomatis serovar K; Second Infection (supernatant transfer to uninfected treated cells), J774A.1, 30 μmol/L): 1.4 per field of view
Inclusions (per field of view), Small (≦10 μm) (C. trachomatis serovar K; [2]): 0.6 per field of view
Inclusions (per field of view), Total (C. trachomatis serovar K; [2]): 2.0 per field of view
Inclusions Total/Cell (C. trachomatis serovar K; [2]): 0.032
Percent Inhibition (C. trachomatis serovar K; Second Infection, treated vs control, J774A.1, 30 μmol/L): 43.8%
Inclusions (per field of view), Large (15-20 μm) (C. trachomatis serovar K; [3]): 0.7 per field of view
Inclusions (per field of view), Small (≦10 μm) (C. trachomatis serovar K; [3]): 1.1 per field of view
Inclusions (per field of view), Total (C. trachomatis serovar K; [3]): 1.8 per field of view
Inclusions Total/Cell (C. trachomatis serovar K; [3]): 0.016
Percent Inhibition (C. trachomatis serovar K; Third Infection, treated vs control, J774A.1, 30 μmol/L): 39.0%
chlamydial inclusion volume smaller than control (C. trachomatis serovar K; calculated (2×3 to 3×3)): 6-9 fold
percent inhibition of inclusion formation in tocotrienol-treated as compared to untreated cells (C. trachomatis serovar K; summary of Table 1, 30 μmol/L): 40-50%
number of chlamydial inclusions (immunofluorescence staining) (C. trachomatis serovar K; tocotrienol-treated cells vs control, FIG. 3, Table 1): decreased significantly
reduction of tumors (tumors): ≤ 70%
% Decrease in LDL (LDL; Patient 1 (Chlamydia negative before supplementation)): 20%
% Decrease in LDL (LDL; Patient 2 (Chlamydia positive before supplementation)): 7%
% Decrease in LDL (LDL; Patient 3 (Chlamydia strong positive before supplementation)): 25%
cell number compared to cells grown in culture medium (Cells in culture): no difference in cell number
maximum chlamydial inhibition in JY cells (C. trachomatis SVK; at 36 hours, 30 μmol/L, flow cytometry): 2.6 fold
persistence of effect (C. trachomatis SVK; following one single tocotrienol treatment): at least 3 days
period in which chlamydial inhibition was effective (C. trachomatis SVK; one single tocotrienol treatment): ≤ 1 days
chlamydial inhibition in JY cells (C. trachomatis SVK; over an infection period of 72 hours, 30 μmol/L, flow cytometry): at least 2 fold
